Reference: paper PMC4747383, “Design of a peptidic inhibitor that targets the dimer interface of a prototypic galectin” (Oncotarget, 2015)
Entries after “also recorded” stand apart in the source; their conditions may differ. No end group written: not given here.

Columns and labels:
[1] = tested on: recombinant hGal-7; test: Disruption of hGal-7 homodimers, native gel electrophoresis/Western blot; format: biochemical, human; conditions: for disruption of hGal-7 homodimers (in words): 0.5 μM recombinant hGal-7, 20 mM potassium phosphate pH 7.1, 1 h at 4°C
From the text: To measure the ability of the peptides to disrupt the formation of hGal-7 dimers, we used mild denaturing native gel electrophoresis, a commonly used approach to visualize monomer-dimer equilibrium (Fig. 1A and Supplementary Fig. S1). […] This specificity at disrupting hGal-7 dimer formation is provided by distinct three-dimensional arrangements between otherwise very similar galectin homologues. Indeed, while all monomeric galectins reveal identical topologies, dimer formation in hGal-7 proceeds through a “back-to-back” topology of the monomers while other galectins, including hGal-1 and hGal-2, adopt a “side-by-side” structural arrangement (Fig. 1B). This structural organization provides additional means to specifically target and disrupt galectin function.
Incubation of the recombinant B. hGal-1 and C. hGal-2 with hGal-7(129–135) was performed in the same potassium phosphate buffer. The effect of hGal-7(129–135) on the monomeric and dimeric forms of hGal-7/hGal-1/hGal-2 was assessed by Western blotting in native conditions with respective antibodies. The hGal-1/hGal-2 films were overexposed. PACAP28–38 was the control peptide used in order to ensure the specificity of hGal-7(129–135). Recombinant hGal-7 (0.5 μM) was also incubated with increasing concentrations of hGal-7(129–135) in 0.1 mM D. lactose or E. LacNac solutions. Results are representative of three independent experiments.
Human Gal-7 cDNA was cloned into pET-22b(+) using NdeI and HindIII restriction enzymes. Human pET-Gal-1 vector was generously donated by Dr. S. Sato (McGill University, QC, Canada). The proteins were produced in E. coli BL21 (DE3) cells at 37°C. Isopropyl β-D-1-thiogalactopyranoside (IPTG) (1 mM) was added to the bacterial culture at OD600nm = 0.6–0.7 and then incubated for 4 h at 37°C to allow protein production. Bacterial pellets were resuspended in lysis buffer (0.7 mg/mL lysozyme, 10 mM Tris pH 8, 100 mM NaCl, 1 mM EDTA, 1 mM DTT and a protease inhibitor cocktail) and then incubated for 1 h at 37°C prior to centrifugation for 30 min at 15,000 × g (4°C). The supernatant was then filtered with 500 mL bottle top filter ([…]) (Corning, New York, NY, USA) and then ran through a lactose-agarose column (Sigma, St. Louis, MO, USA). The protein was eluted in 1 mL fractions with 150 mM lactose solution. Purified fractions were analyzed by SDS-PAGE. The hGal-7 was then concentrated and purified using Centrifugal filter units (Amicon Ultra-15, 10K) (EMD, Millipore, Etobicoke, ON) in 20 mM potassium phosphate at pH 7.1. All subsequent experiments with the recombinant proteins were performed in the same buffer solution unless mentioned otherwise. Brilliant Coomassie blue was purchased from BioRad (Bio-Rad Laboratories, Mississauga, ON, Canada). The recombinant protein hGal-2 was purchased from MyBiosource (San Diego, CA, USA). […]
gaI-7 (0.5 μM) was incubated with increasing concentrations of biotin-labeled hGaI-7129–135 in 20 mM potassium phosphate buffer (pH 7.1) for 60 min at 4°C beforeWestern blot analysis in low SDS-PAGE using an anti-gaI-7 antibody. B. Similar experiments were carried out using recombinant human B. gaI-1 and C. gaI-2. Results are representative of two independent experiments.
(also on this page, place not known: www.impactjournals.com/oncotarget/ Oncotarget, Materials 2015 Supplementary hGaI-7 129–135.)

[2] = tested on: PBMCs; test: hGal-7-induced apoptosis of PBMCs, PARP-1 cleavage (Western blot); format: cell-based, human; conditions: increasing hGal-7 pre-incubated with peptide 200 μM, 4 h at 37°C, serum-free, two independent experiments
Protocol: The Jurkat cell line was maintained in RPMI 1640 medium. The culture medium was supplemented with 10% [v/v] fetal bovine serum, 2 mmol/L L-glutamine, 10 mM HEPES buffer, and 1 mM sodium pyruvate. All cell culture products were purchased from Life Technologies (Burlington, ON, Canada). Isolation of peripheral mononuclear cell (PBMCs) was performed as previously described.
For the apoptosis tests, whole-cell extracts were homogenized and resuspended in RIPA buffer (Thermo Fisher Scientific, Rockford, IL, USA) containing protease inhibitors (Roche, Laval, QC, Canada). Equal amounts of whole-cell extracts (25 μg) were separated on SDS-PAGE and transferred onto nitrocellulose membranes (Bio-Rad Laboratories). The membranes were first blocked with 5% milk [w/v] in TBS/0.5% Tween 20 [v/v] for 1 h at room temperature and subsequently blotted overnight in a solution of TBS containing 3% BSA [w/v] and 0.5% Tween 20 [v/v]. The following antibodies were used: a rabbit anti-poly-(ADP-ribose) polymerase (PARP)-1 (p25) polyclonal antibody (1:5000; Epitomics, Burlingame, CA, USA) and a mouse anti-β-actin (1:10000; Sigma-Aldrich, St. Louis, MO, USA). […]
concentrations of recombinant human gaI-7 were pre-incubated with the hGaI-7129–135 (200 μM) prior to its addition to A. Jurkat T cells or B. PBMCs. Apoptosis wa, measured after 4 h at 37°C in serum·free conditions. […]

[3] = 0.5 μM recombinant hGal-7, 20 mM potassium phosphate pH 7.1, pre-incubated 1 h at 4°C, native PAGE, Western blot, representative of three independent experiments

Substance | disruption of hGal-7 homodimers (in words) ([1]; native PAGE, Western blot) | inhibition of hGal-7-induced apoptosis in PBMCs (PARP-1 cleavage) [2] | inhibition of hGal-7-induced apoptosis in PBMCs (PARP-1 cleavage) ([2]; listed as hGaI-7129–135) | disruption of hGal-7 homodimers in presence of LacNac ([1]; 0.5 μM hGal-7, 0.1 mM LacNac, representative of three independent experiments) | disruption of hGal-7 homodimers in presence of lactose ([1]; 0.5 μM hGal-7, 0.1 mM lactose, representative of three independent experiments) | lowest concentration giving a consistent decrease of hGal-7 homodimers [1, 3] [µM] | saturation dose for decrease of hGal-7 homodimers [1, 3] [µM]
PACAP(28–38): an inactive fragment of the human Pituitary Adenylate Cyclase-Activating Polypeptide (PACAP) (GKRYKQRVKNK-NH2; ends and bridges not checked; UniProt P18509 159-169, looked up, fragment) | No such effect was observed |  |  |  |  |  | 
H-LDSVRIP-NH2 [hGal-7(129–135), peptide corresponding to hGal-7 segment between residues 129–135] | Disruption of the hGal-7 dimer; also recorded: effective at relatively high concentrations | also observed using human peripheral blood monocytes | decreases gaI-7-induced apoptosis | not inhibited by the presence of lactose or LacNac | not inhibited by the presence of lactose | 10 | 100
